Experimental data published in patent US20240409527A1, “INHIBITORS OF ALPHA-5 BETA-1 INTEGRIN AND USES THEREOF” (The Regents of the University of California, priority 2022, published 2024).

Biological target: α5β1 integrin (Homo sapiens, UniProt P05556+P08648)
Assay: IC50 for the selected compounds (assay not described)

α5β1 integrin, sequence (P08648 42-894 limits assumed): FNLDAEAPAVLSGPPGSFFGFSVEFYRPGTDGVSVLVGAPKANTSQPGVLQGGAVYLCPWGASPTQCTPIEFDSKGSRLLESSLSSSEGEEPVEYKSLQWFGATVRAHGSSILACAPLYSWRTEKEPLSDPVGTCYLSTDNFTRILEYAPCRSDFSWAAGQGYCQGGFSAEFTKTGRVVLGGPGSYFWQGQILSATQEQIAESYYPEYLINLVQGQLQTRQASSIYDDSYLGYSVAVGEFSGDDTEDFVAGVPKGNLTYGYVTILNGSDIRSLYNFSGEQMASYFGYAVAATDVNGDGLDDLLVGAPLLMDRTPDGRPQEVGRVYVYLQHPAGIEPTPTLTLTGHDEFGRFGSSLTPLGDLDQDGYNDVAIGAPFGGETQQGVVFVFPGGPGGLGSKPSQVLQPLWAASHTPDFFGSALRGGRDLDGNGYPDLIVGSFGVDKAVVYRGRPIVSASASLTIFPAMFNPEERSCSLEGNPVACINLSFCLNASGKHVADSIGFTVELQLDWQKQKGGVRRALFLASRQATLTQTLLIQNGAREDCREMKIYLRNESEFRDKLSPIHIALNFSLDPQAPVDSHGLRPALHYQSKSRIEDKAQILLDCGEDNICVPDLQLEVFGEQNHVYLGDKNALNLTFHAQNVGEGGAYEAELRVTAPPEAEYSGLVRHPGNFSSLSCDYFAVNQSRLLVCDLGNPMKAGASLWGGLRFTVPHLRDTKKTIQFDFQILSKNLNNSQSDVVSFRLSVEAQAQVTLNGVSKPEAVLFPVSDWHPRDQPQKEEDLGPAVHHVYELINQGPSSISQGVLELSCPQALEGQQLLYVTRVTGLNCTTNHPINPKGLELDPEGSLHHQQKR
α5β1 integrin, sequence (P05556 21-798): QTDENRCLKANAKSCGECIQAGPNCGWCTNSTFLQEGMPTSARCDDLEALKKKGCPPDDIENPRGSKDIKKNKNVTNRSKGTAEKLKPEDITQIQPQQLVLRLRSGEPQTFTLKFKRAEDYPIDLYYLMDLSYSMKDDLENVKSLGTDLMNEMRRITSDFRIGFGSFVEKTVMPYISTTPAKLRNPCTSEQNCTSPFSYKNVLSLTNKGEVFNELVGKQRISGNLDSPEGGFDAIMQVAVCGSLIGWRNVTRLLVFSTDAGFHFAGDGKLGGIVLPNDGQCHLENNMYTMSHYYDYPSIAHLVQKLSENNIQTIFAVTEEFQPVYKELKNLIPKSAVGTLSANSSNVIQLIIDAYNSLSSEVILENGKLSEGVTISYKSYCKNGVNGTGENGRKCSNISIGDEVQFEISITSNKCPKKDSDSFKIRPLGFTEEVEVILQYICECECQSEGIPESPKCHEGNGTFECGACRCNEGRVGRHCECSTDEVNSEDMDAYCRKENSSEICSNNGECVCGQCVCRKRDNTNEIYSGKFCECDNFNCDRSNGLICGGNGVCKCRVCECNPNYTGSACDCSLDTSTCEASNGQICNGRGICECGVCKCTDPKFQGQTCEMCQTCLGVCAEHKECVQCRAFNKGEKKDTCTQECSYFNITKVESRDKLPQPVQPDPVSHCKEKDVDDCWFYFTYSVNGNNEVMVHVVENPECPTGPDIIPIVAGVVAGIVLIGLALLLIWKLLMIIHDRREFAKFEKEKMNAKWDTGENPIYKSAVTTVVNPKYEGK

Row | Structure (SMILES) | IC50 [µM]
1 | O=C(CNC(=O)c1c[nH]c(=O)c(NC2=NCCCN2)c1)NC[C@H](NC(=O)c1c(Cl)cc(-c2ccccc2)cc1Cl)C(=O)O [SU15210-00206-01, (S)-2-(3,5-dichlorobiphenyl-4-ylcarboxamido)-3-(2-(6-oxo-5-(1,4,5,6-tetrahydropyrimidin-2-ylamino)-1,6-dihydropyridine-3-carboxamido)acetamido)propanoic acid] | < 1
2 | O=C(CNC(=O)c1cncc(NC2=NCCCN2)c1)NC[C@H](NC(=O)c1c(Cl)cc(-c2ccccc2)cc1Cl)C(=O)O [SU15210-00204-01, (S)-2-(3,5-dichlorobiphenyl-4-ylcarboxamido)-3-(2-(5-(1,4,5,6-tetrahydropyrimidin-2-ylamino)nicotinamido)acetamido)propanoic acid] | < 1
